Source: publication PMC6081437, “The potency of the broad spectrum bacteriocin, bactofencin A, against staphylococci is highly dependent on primary structure, N-terminal charge and disulphide formation” (Scientific Reports, 2018)
Bridge positions count the residues as written; N and C are the ends. Square brackets hold non-standard residues; d marks the D form. Ends that are not written are not given here. Peptide text beside a SMILES is read from it.

Tested on: S. aureus DPC5246
Assay type: cell-based, Staphylococcus aureus
Conditions: for Activity (Minimum Inhibitory Concentration, MIC): DPC5246, pH 6.8; for fold reduction in activity compared with bactofencin A (wild type): S. aureus DPC5246, agar well diffusion MIC
Method: Peptides were resuspended at 1000 µM in 50 mM sodium phosphate buffer pH 6.8 and checked for purity by MALDI-TOF-MS. Peptides were serially diluted 1 in 4 to give a dilution series of 250, 62.50, 15.63, 3.91, 0.98 and 0.24 µM and assayed by the agar well diffusion assay described by Ryan et al.[19]. Briefly, 50 µl aliquots of each peptide concentration were plated on a S. aureus DPC5246 indicator plate and the plate incubated at 37 °C. Peptide activity (Minimum Inhibitory Concentration (MIC)) was taken as the lowest concentration of peptide to give a zone of inhibition. All assays were performed in triplicate. The dilution series values were rounded to the nearest whole number to give 1000, 250, 63, 16, 4, 1 and 0.25 µM and data is colour coded for ease of interpretation.

Molecule	Activity (Minimum Inhibitory Concentration, MIC) [µM]	fold reduction in activity compared with bactofencin A (wild type) [fold]
CSCC[C@@H]1NC(=O)CNC(=O)[C@H]([C@@H](C)O)NC(=O)[C@@H]2CCCN2C(=O)[C@H](CCSC)NC(=O)CNC(=O)[C@H](CC(N)=O)NC(=O)[C@H](CC(N)=O)NC(=O)[C@H](Cc2ccc(O)cc2)NC(=O)[C@H](C(C)C)NC(=O)[C@H](CCCNC(=N)N)NC(=O)[C@@H](NC(=O)[C@H](CCCNC(=N)N)NC(=O)[C@H](Cc2c[nH]cn2)NC(=O)[C@H](CCCCN)NC(=O)[C@H](CCCCN)NC(=O)[C@H](CCCNC(=N)N)NC(=O)[C@@H](N)CCCCN)CSSC[C@@H](C(=O)O)NC(=O)[C@H](Cc2c[nH]c3ccccc23)NC(=O)[C@H](CCCNC(=N)N)NC(=O)[C@@H](Cc2ccc(O)cc2)NC1=O [Y19Yd] (H-KRKKHRCRVYNNGMPTGM[dY]RWC-OH; disulfide 7-22; N-terminus assumed)	63	63
CSCC[C@@H]1NC(=O)CNC(=O)[C@H]([C@@H](C)O)NC(=O)[C@@H]2CCCN2C(=O)[C@H](CCSC)NC(=O)CNC(=O)[C@H](CC(N)=O)NC(=O)[C@H](CC(N)=O)NC(=O)[C@H](Cc2ccc(O)cc2)NC(=O)[C@H](C(C)C)NC(=O)[C@H](CCCNC(=N)N)NC(=O)[C@@H](N)CSSC[C@@H](C(=O)O)NC(=O)[C@H](Cc2c[nH]c3ccccc23)NC(=O)[C@H](CCCNC(=N)N)NC(=O)[C@H](Cc2ccc(O)cc2)NC1=O [C7-C22] (H-CRVYNNGMPTGMYRWC-OH; disulfide 1-16; N-terminus assumed)	> 1000	–
CSCC[C@@H]1NC(=O)CNC(=O)[C@H]([C@@H](C)O)NC(=O)[C@@H]2CCCN2C(=O)[C@H](CCSC)NC(=O)CNC(=O)[C@H](CC(N)=O)NC(=O)[C@H](CC(N)=O)NC(=O)[C@H](Cc2ccc(O)cc2)NC(=O)[C@H](C(C)C)NC(=O)[C@H](CCCNC(=N)N)NC(=O)[C@@H](NC(=O)[C@H](CCCNC(=N)N)NC(=O)[C@H](Cc2c[nH]cn2)NC(=O)[C@H](CCCCN)NC(=O)[C@H](CCCCN)NC(=O)[C@H](CCCNC(=N)N)NC(=O)[C@@H](N)CCCCN)CSSC[C@@H](C(=O)O)NC(=O)[C@@H](Cc2c[nH]c3ccccc23)NC(=O)[C@H](CCCNC(=N)N)NC(=O)[C@H](Cc2ccc(O)cc2)NC1=O [W21Wd] (H-KRKKHRCRVYNNGMPTGMYR[dW]C-OH; disulfide 7-22; N-terminus assumed)	4	–
KRKKHRCRVYNNGMPTGMYRWS [C22S]	250	250
KRKKHRSRVYNNGMPTGMYRWC-OH [C7S]	63	63
CSCC[C@@H]1NC(=O)CNC(=O)[C@H]([C@@H](C)O)NC(=O)[C@@H]2CCCN2C(=O)[C@H](CCSC)NC(=O)CNC(=O)[C@H](CC(N)=O)NC(=O)[C@H](CC(N)=O)NC(=O)[C@H](Cc2ccc(O)cc2)NC(=O)[C@H](C(C)C)NC(=O)[C@H](CCCNC(=N)N)NC(=O)[C@@H](NC(=O)[C@H](CCCNC(=N)N)NC(=O)[C@H](Cc2c[nH]cn2)NC(=O)[C@H](C)NC(=O)[C@H](CCCCN)NC(=O)[C@H](CCCNC(=N)N)NC(=O)[C@@H](N)CCCCN)CSSC[C@@H](C(=O)O)NC(=O)[C@H](Cc2c[nH]c3ccccc23)NC(=O)[C@H](CCCNC(=N)N)NC(=O)[C@H](Cc2ccc(O)cc2)NC1=O [K4A] (H-KRKAHRCRVYNNGMPTGMYRWC-OH; disulfide 7-22)	1	–
CSCC[C@@H]1NC(=O)CNC(=O)[C@H]([C@@H](C)O)NC(=O)[C@@H]2CCCN2C(=O)[C@H](CCSC)NC(=O)CNC(=O)[C@H](CC(N)=O)NC(=O)[C@H](CC(N)=O)NC(=O)[C@H](Cc2ccc(O)cc2)NC(=O)[C@H](C(C)C)NC(=O)[C@H](C)NC(=O)[C@@H](NC(=O)[C@H](CCCNC(=N)N)NC(=O)[C@H](Cc2c[nH]cn2)NC(=O)[C@H](CCCCN)NC(=O)[C@H](CCCCN)NC(=O)[C@H](CCCNC(=N)N)NC(=O)[C@@H](N)CCCCN)CSSC[C@@H](C(=O)O)NC(=O)[C@H](Cc2c[nH]c3ccccc23)NC(=O)[C@H](CCCNC(=N)N)NC(=O)[C@H](Cc2ccc(O)cc2)NC1=O [R8A] (H-KRKKHRCAVYNNGMPTGMYRWC-OH; disulfide 7-22)	1	–
